Experiments:
AOM-induced colon tumors = assay: AOM-induced tumorigenesis with UA-containing diets; format: in vivo, FVB mice
Description: Oral UA confers anti-tumor effects in murine colorectal cancer in a T-cell dependent manner. (FIG. 1A) Schematic representation of AOM model and different UA containing diets. (FIG. 1B) Representative images of swiss-roll sections from AOM-induced colon tumors. Scale bars are 2 mm (upper row) and 300 µm (lower row), respectively. (FIG. 1C) Tumor incidence of AOM-induced tumors receiving different UA-containing diets; n=4/5/5. Data are mean ±SD, depicting one of two independent experiments. *p < 0.05 by two-sided t-test. (FIG. 1D) Average lesion size of AOM-induced tumors receiving different UA-containing diets; n=4/5/5. Data are mean ±SD, depicting one of two independent experiments. *p < 0.05 by two-sided t-test. (FIG. 1E) Relative number of CD45^+CD3^+ T cells in colons of AOM-treated mice at week 24 (n>7, pooled from two independent experiments). Data are mean ± SD, **p < 0.01 by two-sided t-test. (FIG. 1F) Organoid treatment scheme. APTK-organoids were incubated in the presence of UA or DMSO for the indicated time points, prior to flow cytometric analysis. (FIG. 1G) Quantification of lysosome formation as assessed by lysotracker MFI via flow cytometry after 24 h incubation at the presence of various UA concentrations (n=5/4/4). Depicts one out of two indepdent experiments. Data are mean ± SD, *p < 0.05; **p < 0.01 as established via two-sided t-test. (FIG. 1H) Mitotracker signal of APTK organoids incubated for 24 h at the presence of UA in vitro (n=4/4/4) and antigen presentation via MHC-I molecules (I) after 48 h of treatment (n=4/4/4). Results from one out of two independent experiments are shown. Data are mean ± SD, statistical analysis was performed via two-sided t-test, *p < 0.05; **p < 0.01, ****p < 0.0001. (FIG. 1I) Upregulation of MHC-I by UA. (FIG. 1J) Experimental setup of oral UA administration in mice with established APTK-s.c. tumors. Treatment diet was initiated eleven days after tumor injection and maintained until the end of the experiment. (FIG. 1K) Growth curve of mice subcutaneously transplanted with APTK tumors, receiving either UA-containing or control food (n=7 per group). Data are mean ± SD, ***p <0.001 by two-sided t-test. One out of two independent experiments are shown. (FIG. 1L) End point tumor weight, (FIG. 1M) CD8+ T cell infiltration in APTK-s.c. tumors assessed by flow cytometry, normalising total number of CD8^+ T cells to tumor weight (n=7 per group). Data are mean ± SD, statistical analysis was performed via Mann-Whitney test, *p < 0.05 and ***p <0.001. (FIG. 1N) Size of subcutaneous APTK tumors in Rag1^-/- mice receiving UA-containing or control food (n=7 per group). Treatment was initiated as depicted in FIG. 1J. Data are mean +-SD, depicting one out of two independent experiments. […]

subcutaneous APTK tumors = assay: Oral UA in Rag1-/- mice with s.c. APTK tumors; format: in vivo; settings: UA-containing vs control food; no mature T and B cells
Description: Oral UA confers anti-tumor effects in murine colorectal cancer in a T-cell dependent manner. (FIG. 1A) Schematic representation of AOM model and different UA containing diets. (FIG. 1B) Representative images of swiss-roll sections from AOM-induced colon tumors. Scale bars are 2 mm (upper row) and 300 µm (lower row), respectively. (FIG. 1C) Tumor incidence of AOM-induced tumors receiving different UA-containing diets; n=4/5/5. Data are mean ±SD, depicting one of two independent experiments. *p < 0.05 by two-sided t-test. (FIG. 1D) Average lesion size of AOM-induced tumors receiving different UA-containing diets; n=4/5/5. Data are mean ±SD, depicting one of two independent experiments. *p < 0.05 by two-sided t-test. (FIG. 1E) Relative number of CD45^+CD3^+ T cells in colons of AOM-treated mice at week 24 (n>7, pooled from two independent experiments). Data are mean ± SD, **p < 0.01 by two-sided t-test. (FIG. 1F) Organoid treatment scheme. […] (FIG. 1G) Quantification of lysosome formation as assessed by lysotracker MFI via flow cytometry after 24 h incubation at the presence of various UA concentrations (n=5/4/4). […] (FIG. 1L) End point tumor weight, (FIG. 1M) CD8+ T cell infiltration in APTK-s.c. tumors assessed by flow cytometry, normalising total number of CD8^+ T cells to tumor weight (n=7 per group). […]

CD19-CAR T cells = assay: CD19-CAR T cell generation in presence of UA; format: cell-based, human
[1] = high-dose UA diet (2.28 g/kg), 18 weeks

Q: For `O=c1oc2cc(O)ccc2c2ccc(O)cc12` [Urolithin A], which tumor incidence (AOM-induced colon tumors; [1]) is on record?
A: The tumor incidence was “significant decrease”.

Q: And the tumor size (AOM-induced colon tumors; [1])?
A: Its tumor size is “significant decrease”.

Q: And the “infiltration of CD3+ T cells” value (AOM-induced colon tumors; high-dose UA diet, colons at week 24)?
A: The value was “increased infiltration of CD3^+T cells”.

Q: What about the tumor load (AOM-induced colon tumors; low-dose UA diet (0.57 g/kg), 18 weeks) of the same compound?
A: Its tumor load is “did not have an effect on tumor load”.

Q: And the “tumor size, protective effect of UA” value (subcutaneous APTK tumors)?
A: The value was “abrogated the protective effect of UA”.

Q: And the “gene delivery into CD8+ cells” value (CD19-CAR T cells)?
A: Its value is “did not impair gene delivery”.

Q: And the markers of exhaustion (CD19-CAR T cells; UA supplementation)?
A: The markers of exhaustion was “not affected”.

Q: What about the “CAR expressing TSCM cells among CD8+ cells” value (CD19-CAR T cells; three days post transduction, upon UA exposure) of the same compound?
A: The value was “about 60%”.
